Results from ChEMBL document CHEMBL1201862, “PubChem BioAssay data set” (2004).
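96-well plates; 48 h exposure; 5 concentrations. Endpoints by linear interpolation between flanking doses. Not reached: highest tested concentration assigned. GI50: concentration for 50% inhibition of growth.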 Activity calls are given as the source filed them. Cut-off read from the data, not from the text of the source: active = GI50 up to about 1.1 µM and inactive = higher.

Experiments:
Assay in all cases: inhibition of tumour cell growth, NCI panel, 48 h
[1] = tested on: DU-145
[2] = tested on: NCI-H226
[3] = tested on: EKVX
[4] = tested on: HOP-92
[5] = tested on: TK-10
[6] = tested on: A549
[7] = tested on: M14
[8] = tested on: NCI-H522
[9] = tested on: SN12C
[10] = tested on: PC-3
[11] = tested on: COLO 205
[12] = tested on: K562
[13] = tested on: 786-0
[14] = tested on: UO-31
[15] = tested on: CAKI-1
[16] = tested on: MDA-MB-231
[17] = tested on: OVCAR-8
[18] = tested on: Malme-3M
[19] = tested on: NCI/ADR-RES
[20] = tested on: MCF7
[21] = tested on: RXF 393
[22] = tested on: HOP-62
[23] = tested on: SW-620
[24] = tested on: SK-OV-3
[25] = tested on: BT-549
[26] = tested on: MOLT-4
[27] = tested on: HCT-116
[28] = tested on: SF-295
[29] = tested on: MDA-N
[30] = tested on: RPMI-8226
[31] = tested on: NCI-H23
[32] = tested on: UACC-257
[33] = tested on: SR
[34] = tested on: SK-MEL-2
[35] = tested on: U-251
[36] = tested on: SNB-19
[37] = tested on: NCI-H460
[38] = tested on: HCT-15
[39] = tested on: SF-539
[40] = tested on: T47D
[41] = tested on: Hs-578T
[42] = tested on: HT-29
[43] = tested on: SK-MEL-28
[44] = tested on: OVCAR-5
[45] = tested on: IGROV-1
[46] = tested on: SF-268
[47] = tested on: OVCAR-3
[48] = tested on: HCC 2998
[49] = tested on: KM12
[50] = tested on: ACHN
[51] = tested on: UACC-62
[52] = tested on: SK-MEL-5

O=C(/C=C/c1ccccc1)/C=N/N1C(=S)N(c2ccccc2)C(=N\c2ccccc2)/C1=N/c1ccccc1
GI50 [1]: > 100 µM (inactive)
GI50 [2]: > 100 µM (inactive)
GI50 [3]: > 100 µM (inactive)
GI50 [4]: > 100 µM (inactive)
GI50 [5]: > 100 µM (inactive)
GI50 [6]: > 100 µM (inactive)
GI50 [7]: > 100 µM (inactive)
GI50 [8]: 11.2 µM (inactive)
GI50 [9]: > 100 µM (inactive)
GI50 [10]: > 100 µM (inactive)
GI50 [11]: > 100 µM (inactive)
GI50 [12]: > 100 µM (inactive)
GI50 [13]: > 100 µM (inactive)
GI50 [14]: > 100 µM (inactive)
GI50 [15]: > 100 µM (inactive)
GI50 [16]: > 100 µM (inactive)
GI50 [17]: > 100 µM (inactive)
GI50 [18]: > 100 µM (inactive)
GI50 [19]: > 100 µM (inactive)
GI50 [20]: 33 µM (inactive)
GI50 [21]: 38.8 µM (inactive)
GI50 [22]: > 100 µM (inactive)
GI50 [23]: > 100 µM (inactive)
GI50 [24]: > 100 µM (inactive)
GI50 [25]: > 100 µM (inactive)
GI50 [26]: > 100 µM (inactive)
GI50 [27]: 43.1 µM (inactive)
GI50 [28]: > 100 µM (inactive)
GI50 [29]: 82.4 µM (inactive)
GI50 [30]: > 100 µM (inactive)
GI50 [31]: > 100 µM (inactive)
GI50 [32]: > 100 µM (inactive)
GI50 [33]: > 100 µM (inactive)
GI50 [34]: > 100 µM (inactive)
GI50 [35]: > 100 µM (inactive)
GI50 [36]: > 100 µM (inactive)
GI50 [37]: 58.7 µM (inactive)
GI50 [38]: > 100 µM
GI50 [39]: > 100 µM (inactive)
GI50 [40]: > 100 µM (inactive)
GI50 [41]: > 100 µM (inactive)
GI50 [42]: > 100 µM (inactive)
GI50 [43]: > 100 µM (inactive)
GI50 [44]: > 100 µM (inactive)
GI50 [45]: > 100 µM (inactive)
GI50 [46]: > 100 µM (inactive)
GI50 [47]: > 100 µM (inactive)
GI50 [48]: > 100 µM (inactive)
GI50 [49]: > 100 µM (inactive)
GI50 [50]: > 100 µM (inactive)
GI50 [51]: > 100 µM (inactive)
GI50 [52]: > 100 µM (inactive)
